Data on 15 molecules can be found in patent US10383831B2, “2,4,6-trialkoxystryl aryl sulfones, sulfonamides and carboxamides, and methods of preparation and use” (Temple University—Of The Commonwealth System Of Higher …, priority 2015, dated 2019).

Holding throughout (type): cell-based
One data set relates to DU145 (prostate cancer). Description: Cytotoxicity assay, DU145 tumor cells. Conditions: Homo sapiens, DU-145, 96 hours treatment. On the procedure:
(§1) The effect of the compounds of the invention on tumor cells was determined by the assay described by Latham et al., Oncogene 12:827-837 (1996). Tumor cells K562 (chronic myelogenous leukaemia) or DU145 (prostate cancer) were plated in 12-well dishes at a cell density of 2.5×10^4 cells well. The plated cells were treated 24 hours later with a compound of the invention dissolved in DMSO at multiple concentrations ranging from 0.001 to 10 μM. The plates were examined 96 hours later under an inverted microscope, Olympus CK-2 using a 10× objective, and compound activity was noted by physical observation. When necessary, the total number of viable cells was determined by trypsinizing the wells and counting the number of viable cells, as determined by trypan blue exclusion, using a hemacytometer.

The subject of data set [1] is K562 (chronic myelogenous leukaemia). As to the kind of experiment: Cytotoxicity assay, K562 tumor cells. Conditions: Homo sapiens, 96 hours treatment. On the procedure:
as §1

Another data set has as its system A549. Description: Cytotoxicity assay (viable cell count, trypan blue), A549. Particulars: A549, Non-Small Cell Lung Carcinoma; 96 hours continuous treatment. How it is done: (§2) Cells of the cell lines listed in Table 18 (1×10^5) were plated into 6-well dishes. Twenty-four hours later, the compound of Example 1, i.e., (Z)-ethyl 3-((2-methoxy-5-(((E)-2,4,6-trimethoxystyrylsulfonyl)methyl) phenyl)amino)acrylate, or the compound of Comparative Example 1, i.e., sodium (E)-2-(5-((2,4,6-trimethoxystyrylsulfonyl)methyl)-2-methoxyphenylamino) acetate (rigosertib) was added at different concentrations over a 4 log dilution (0.001 to 10 μM). The total number of viable cells was determined after 96 hours of continuous treatment by staining with trypan blue and counting the number of non-staining cells (viable) remaining in each well using a hemacytometer. The percentage of viable cells remaining was calculated as follows: # viable cells (compound treated)/# viable cells (DMSO treated)*100. The GI50 (the concentration of drug resulting in 50% net loss of growth inhibition) was determined.

The subject of another data set is UM-UC-3. Description: Cytotoxicity assay (viable cell count, trypan blue), UM-UC-3. Conditions: UM-UC-3, Bladder; 96 hours continuous treatment. On the procedure: as §2
For the next data set, the system named is DU145. Description: Cytotoxicity assay (viable cell count, trypan blue), DU145. Particulars: DU145, Prostate; 96 hours continuous treatment. On the procedure:
as §2

In the next data set the test system is T-24. Description: Cytotoxicity assay (viable cell count, trypan blue), T-24. Particulars: T-24, Bladder; 96 hours continuous treatment. On the procedure:
as §2

Another data set concerns RS4; 11. As to the kind of experiment: Cytotoxicity assay (viable cell count, trypan blue), RS4; 11. Conditions: 11, ALL-B-Cell Precursor, 96 hours continuous treatment. On the procedure: as §2
The subject of a further data set is HT-29. As to the kind of experiment: Cytotoxicity assay (viable cell count, trypan blue), HT-29. Particulars: HT-29, Colo-Rectal; 96 hours continuous treatment. How it is done: as §2
The test system of the next data set is Caov-3. As to the kind of experiment: Cytotoxicity assay (viable cell count, trypan blue), Caov-3. Conditions: Caov-3, Ovarian; 96 hours continuous treatment. How it is done:
as §2

In a further data set the test system is HCT-116. Description: Cytotoxicity assay (viable cell count, trypan blue), HCT-116. Conditions: HCT-116, Colo-Rectal; 96 hours continuous treatment. On the procedure: as §2
The subject of another data set is Z1385. As to the kind of experiment: Cytotoxicity assay (viable cell count, trypan blue), Z1385. Conditions: Z1385, Mantle Cell Lymphoma; 96 hours continuous treatment. On the procedure: as §2
For the next data set, the system named is N417. As to the kind of experiment: Cytotoxicity assay (viable cell count, trypan blue), N417. Conditions: N417, Small Cell Lung Carcinoma; 96 hours continuous treatment. On the procedure: as §2
The test system of a further data set is K562. Description: Cytotoxicity assay (viable cell count, trypan blue), K562. Conditions: K562, Chronic Myelogenous Leukemia; 96 hours continuous treatment. How it is done:
as §2

In another data set the test system is CEM. As to the kind of experiment: Cytotoxicity assay (viable cell count, trypan blue), CEM. Particulars: T-Cell Lymphoma, 96 hours continuous treatment. On the procedure: as §2
For a further data set, the system named is 5367. Description: Cytotoxicity assay (viable cell count, trypan blue), 5367. Particulars: 5367, Bladder; 96 hours continuous treatment. How it is done:
as §2

The next data set deals with H1299. Description: Cytotoxicity assay (viable cell count, trypan blue), H1299. Conditions: H1299, Non-Small Cell Lung Carcinoma; 96 hours continuous treatment. On the procedure: as §2
For a further data set, the system named is MDA-MB-231. Description: Cytotoxicity assay (viable cell count, trypan blue), MDA-MB-231. Particulars: MDA-MB-231, Breast; 96 hours continuous treatment. On the procedure: as §2
The next data set relates to MOLT-4. Description: Cytotoxicity assay (viable cell count, trypan blue), MOLT-4. Conditions: MOLT-4, T-Cell Lymphoma; 96 hours continuous treatment. On the procedure: as §2
The next data set relates to MIA-PaCa-2. Description: Cytotoxicity assay (viable cell count, trypan blue), MIA-PaCa-2. Conditions: MIA-PaCa-2, Pancreatic; 96 hours continuous treatment. How it is done:
as §2

The subject of a further data set is HCT-15. As to the kind of experiment: Cytotoxicity assay (viable cell count, trypan blue), HCT-15. Particulars: HCT-15, Colo-Rectal; 96 hours continuous treatment. On the procedure: as §2
In another data set the test system is WM1617. Description: Cytotoxicity assay (viable cell count, trypan blue), WM1617. Particulars: WM1617, Melanoma; 96 hours continuous treatment. How it is done:
as §2

Another data set relates to PC-3. Description: Cytotoxicity assay (viable cell count, trypan blue), PC-3. Conditions: PC-3, Prostate; 96 hours continuous treatment. On the procedure: as §2
For the next data set, the system named is GRANTA-519. Description: Cytotoxicity assay (viable cell count, trypan blue), GRANTA-519. Conditions: GRANTA-519, Mantle Cell Lymphoma; 96 hours continuous treatment. How it is done:
as §2

For another data set, the system named is 2008. As to the kind of experiment: Cytotoxicity assay (viable cell count, trypan blue), 2008. Particulars: 2008, Ovarian; 96 hours continuous treatment. How it is done:
as §2

The next data set deals with DAUDI. Description: Cytotoxicity assay (viable cell count, trypan blue), DAUDI. Particulars: B-Cell Lymphoma, 96 hours continuous treatment. On the procedure: as §2
The test system of the next data set is tumor cell lines. As to the kind of experiment: Cytotoxicity assay, comparison across the cell lines listed in Table 18. Particulars: across a wide range of tumor cell lines. How it is done:
as §2

In the data set on DU145 (prostate cancer), `COc1cc(OC)c(/C=C/S(=O)(=O)Cc2ccc(OC)c(N/C=C\C(=O)c3cc(OC)c(OC)c(OC)c3)c2)c(OC)c1` [Ex. 5, (Z)-1-(3,4,5-trimethoxyphenyl)-3-((2-methoxy-5-(((E)-2,4,6-trimethoxystyrylsulfonyl)methyl)phenyl)amino) prop-2-en-1-one] came in with an IC50 of 0.009 µM.
For the molecule `COc1ccc(C(=O)/C=C\Nc2cc(CS(=O)(=O)/C=C/c3c(OC)cc(OC)cc3OC)ccc2OC)cc1` [Ex. 4, (Z)-1-(4-methoxyphenyl)-3-((2-methoxy-5-(((E)-2,4,6-trimethoxystyrylsulfonyl)methyl)phenyl)amino)prop-2-en-1-one], the IC50 (in the data set on DU145 (prostate cancer); in data set [1]) was 0.05 µM in each case.
For the molecule `CCOC(=O)/C=C/CNc1cc(CS(=O)(=O)/C=C/c2c(OC)cc(OC)cc2OC)ccc1OC` [Ex. 181, (E)-Ethyl 4-((2-methoxy-5-(((E)-2,4,6-trimethoxystyrylsulfonyl)methyl)phenyl)amino)but-2-enoate], the IC50 (in the data set with DU145 (prostate cancer); in [1]) was 0.25 µM each time.
For `C=CC(=O)Nc1cc(CS(=O)(=O)/C=C/c2c(OC)cc(OC)cc2OC)ccc1OC` [Ex. 201, (E)-N-(2-methoxy-5-(((2,4,6-trimethoxystyryl)sulfonyl)methyl)phenyl)acrylamide], the IC50 (in the data set with DU145 (prostate cancer); in data set [1]) was 0.75 µM throughout.
Consider `C#CCN(CC#C)c1cc(CS(=O)(=O)/C=C/c2c(OC)cc(OC)cc2OC)ccc1OC` [Ex. 161, (E)-2-methoxy-N,N-di(prop-2-yn-1-yl)-5-(((2,4,6-trimethoxystyryl)sulfonyl)-methyl)aniline], for which the half-maximal inhibitory concentration (IC50) (in the data set with DU145 (prostate cancer); in [1]) was 2.5 µM throughout.
With `COc1cc(OC)c(/C=C/S(=O)(=O)Cc2ccc(OC)c(NCC(=O)O)c2)c(OC)c1` [Comparative Example 1, Sodium (E)-2-(5-((2,4,6-trimethoxystyrylsulfonyl)methyl)-2-methoxyphenylamino) acetate, reference compound], the GI50 turned out to be 75 nM with A549; 50 nM in the data set on UM-UC-3; 150 nM in the data set with DU145; 70 nM with T-24; 75 nM in the data set on RS4; 11; 250 nM in the data set on HT-29. Moreover, the GI50 in the data set on Caov-3 was 150 nM; with HCT-116, 100 nM; in the data set with Z1385, 40 nM; in the data set on N417, 100 nM; in the data set with K562, 120 nM; in the data set on CEM, 40 nM. The GI50 with 5367 was determined as 100 nM; with H1299 it was 200 nM; in the data set on MDA-MB-231 it was 90 nM; with MOLT-4 it was 40 nM; with MIA-PaCa-2, 150 nM; with HCT-15 it was 200 nM. The GI50 with WM1617 came out at 300 nM; in the data set on PC-3, 75 nM; in the data set on GRANTA-519, 40 nM; with 2008, 100 nM; with DAUDI, 75 nM.
As to `COc1cc(OC)c(/C=C/S(=O)(=O)Cc2ccc(OC)c(NC(=O)/C=C\C(=O)O)c2)c(OC)c1` [Ex. 171, (Z)-4-((2-methoxy-5-(((E)-2,4,6-trimethoxystyrylsulfonyl)methyl)phenyl)amino)-4-oxobut-2-enoic acid], the IC50 (with DU145 (prostate cancer); in [1]) was 2 µM throughout.
Consider `COc1cc(OC)c(/C=C/S(=O)(=O)Cc2ccc(OC)c(N/C=C\C(=O)c3cc(OC)c(OC)c(OC)c3Cl)c2)c(OC)c1` [Ex. 7, (Z)-1-(2-chloro-3,4,5-trimethoxyphenyl)-3-((2-methoxy-5-(((E)-2,4,6-trimethoxystyrylsulfonyl)methyl)phenyl)amino)prop-2-en-1-one], for which the 50% inhibitory concentration (IC50) (with DU145 (prostate cancer); in data set [1]) was 0.05 µM each time.
Consider `COc1cc(OC)c(/C=C/S(=O)(=O)Cc2ccc(OC)c(N/C=C\C(C)=O)c2)c(OC)c1` [Ex. 2, (Z)-4-((2-Methoxy-5-(((E)-2,4,6-trimethoxystyrylsulfonyl)methyl)phenyl)amino)but-3-en-2-one], for which the IC50 (in the data set with DU145 (prostate cancer); in data set [1]) was 0.1 µM in each case.
As to `CCOC(=O)C(=CNc1cc(CS(=O)(=O)/C=C/c2c(OC)cc(OC)cc2OC)ccc1OC)C(=O)OCC` [Ex. 191, (E)-diethyl-2-(((2-methoxy-5-(((2,4,6-trimethoxystyryl)sulfonyl)methyl)phenyl)-amino)methylene)malonate], the IC50 (in the data set on DU145 (prostate cancer); in [1]) was 2 µM each time.
For `CCOC(=O)/C=C\Nc1cc(CS(=O)(=O)/C=C/c2c(OC)cc(OC)cc2OC)ccc1OC` [(Z)-ethyl 3-((2-methoxy-5-(((E)-2,4,6-trimethoxystyrylsulfonyl)methyl)phenyl)amino)acrylate], the “fold more cytotoxic than Rigosertib” value with tumor cell lines was 10-100 fold.
With `COC(=O)/C=C\C(=O)Nc1cc(CS(=O)(=O)/C=C/c2c(OC)cc(OC)cc2OC)ccc1OC` [Ex. 176, (Z)-methyl 4-((2-methoxy-5-(((E)-2,4,6-trimethoxystyrylsulfonyl)methyl)phenyl)amino)-4-oxobut-2-enoate], the results for the concentration for half-maximal inhibition (IC50) (in the data set on DU145 (prostate cancer); in data set [1]) were 2 µM and 0.25 µM, respectively.
The like results for `COc1cc(OC)c(/C=C/S(=O)(=O)Cc2ccc(OC)c(NC(=O)/C=C/C(=O)O)c2)c(OC)c1` [Ex. 186, (E)-4-((2-methoxy-5-(((E)-2,4,6-trimethoxystyrylsulfonyl)methyl)phenyl)amino)-4-oxobut-2-enoic acid] were, in that order, 2 µM and 2 µM.
Taken in the same sequence, the figures for `COC(=O)/C=C\Nc1cc(CS(=O)(=O)/C=C/c2c(OC)cc(OC)cc2OC)ccc1OC` [Ex. 3, (Z)-methyl 3-((2-methoxy-5-(((E)-2,4,6-trimethoxystyrylsulfonyl)methyl)phenyl)amino) acrylate] were 0.004 µM and 0.004 µM.
Turning to `COc1cc(OC)c(/C=C/S(=O)(=O)Cc2ccc(OC)c(N/C=C\C(=O)c3cc(OC)c(OC)c(OC)c3Br)c2)c(OC)c1` [Ex. 8, (Z)-1-(2-bromo-3,4,5-trimethoxyphenyl)-3-((2-methoxy-5-(((E)-2,4,6-trimethoxystyrylsulfonyl)methyl)phenyl)amino)prop-2-en-1-one], the IC50 (with DU145 (prostate cancer); in data set [1]) was 0.075 µM throughout.

One may read the IC50 as the concentration that inhibits the measured activity by half. A higher IC50 goes with weaker potency in that assay. In general, GI50 refers to the concentration that inhibits growth by half. A lower GI50 goes with greater sensitivity of the cells.
